Patent US20210024498A1, “TETRAHYDROPYRROLE COMPOUND, PREPARATION METHOD THEREFOR, PHARMACEUTICAL COMPOSITION CONTAINING SAME, AND USE THEREOF” (MEDICONNS (SHANGHAI) BIOPHARMACEUTICAL CO., LTD, priority 2017, published 2021)
“Also recorded” adds a separate entry of the source.

Legend:
[1] = target: T1, D2 receptor (Homo sapiens, UniProt P14416); test: D2 receptor affinity assay (radioligand competition, 3H-7-OH-DPAT); assay type: binding; conditions: cloned D2 receptor expressed in HEK293 cell line; 3H-7-OH-DPAT 1 nM
T1 construct: expressed in transfected cells; host or cells: HEK293
T1 sequence (P14416 whole entry): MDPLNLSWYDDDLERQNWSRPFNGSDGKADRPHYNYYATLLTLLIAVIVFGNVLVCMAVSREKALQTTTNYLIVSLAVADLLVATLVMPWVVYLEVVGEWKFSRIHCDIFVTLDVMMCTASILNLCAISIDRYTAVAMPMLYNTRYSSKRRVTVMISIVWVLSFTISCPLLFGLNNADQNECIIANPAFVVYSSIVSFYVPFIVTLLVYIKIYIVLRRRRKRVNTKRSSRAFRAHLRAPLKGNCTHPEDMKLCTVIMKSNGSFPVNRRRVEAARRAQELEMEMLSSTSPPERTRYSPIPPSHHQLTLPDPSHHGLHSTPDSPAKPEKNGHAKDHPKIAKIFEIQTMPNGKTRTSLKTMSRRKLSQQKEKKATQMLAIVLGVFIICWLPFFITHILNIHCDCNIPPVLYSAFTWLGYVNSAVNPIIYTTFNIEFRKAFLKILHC
Method: (§1) Bioactivity Test • I. D2 receptor affinity assay: The affinity of the compound to D2 receptor was determined by radioligand competition assay, and the cloned D2 receptor was expressed in HEK293 cell line. • II. D2 receptor function assay: The ability of the compound to antagonize the D2 receptor was determined using a calcium mobilization assay (FLIPR). • III. DAT receptor function assay: The ability of the compound to inhibit DAT was determined by neurotransmitter transporter absorption assay.
• Experimental buffer: 50 mM Tris-HCl, pH 7.4, 5 mM MgCl2 • Washing buffer: 50 mM Tris-HCl pH 7.4, stored at 4° C. ready for use.
• The compound and positive control 7-OH-DPAT were serially diluted with DMSO, with the initial concentration of 2 mM and 4 times serial dilution, a total of 10 concentrations. 1 μL was transferred to the designated position of the 96-well plate. • 1 μL droperidol (final concentration 10 μM) was added to the positive control well. 1 μL DMSO was added to the negative control well.
• Receptor cell membrane was diluted to 10 μg/well with corresponding experimental buffer, with 100 μL cell membrane/well.
• 3H-7-OH-DPAT was diluted to 2 nM with corresponding experimental buffer, and the final concentration was 1 nM.
• After 100 μL of cell membrane and isotope were added, respectively, the reaction plate of the D2 receptor was incubated at room temperature for 1 hour. The GF/C filter plate was soaked in 0.3% PEI solution for more than half an hour. After the reaction was completed, the cell membrane was collected on the GF/C filter plate using the […], washed 4 times with cold washing buffer, and then dried in an oven at 50° C. for 1 hour. The dried GF/C filter plate was sealed at the bottom, 50 μL of scintillation fluid was added to each well and the well was sealed. Reads were obtained by MicroBeta and the data was analyzed using GraphPad Prism 5.0.
Ki=IC50/(1+isotope concentration/Kd)

[2] = target: T1, D2 receptor; test: D2 receptor function assay, calcium mobilization (FLIPR); assay type: cell-based; conditions: HEK293, antagonism of D2 receptor
Method: as §1
• Cell line: HEK293 • DMEM medium (Invitrogen) • Fetal bovine serum (FBS, Invitrogen) • L-Glutamine (Invitrogen) G418 (Invitrogen) • Blasticidin (Invitrogen)
• Fluo-4 Direct Kit (Invitrogen)
• 250 mM Probenecid solution was formulated: according to the kit instructions, 1 mL of FLIPR buffer salt solution was added to 77 mg probenecid just before needed. • 2× (8 μM) Fluo-4 Direct™ loading buffer was formulated: the number of tubes in Fluo-4 Direct™ needed for the experiment was melted in advance. Just before needed, 10 ml of FLIPR buffer salt solution and 0.2 mL of 250 mM Probenecid solution were added to each tube and vortexed in dark for more than 5 minutes.
• a) One tube of cells was taken from the liquid nitrogen tank and quickly thawed in 37° C. water bath. • b) The cell suspension was added to a centrifuge tube to which the preheated 20 ml medium was added in advance. • c) The centrifuge tube was centrifuged at 1000 rpm for 5 minutes at room temperature. • d) The supernatant was slowly decanted to avoid affecting the precipitated cells. • e) The cells were resuspended with 10-30 ml medium by pipetting the cells gently with a pipette. • f) The viability and number of cells were calculated with the cell counter. • g) The cells were diluted to 1×10^5 cells/ml with medium, and inoculated in the 384-well polylysine coated cell plate at 20 μL/well. • h) The plate was incubated in an incubator at 5% CO2, 37° C. for 16 to 20 hours.
10 μL of experimental buffer salt solution was added into the cell plate according to the set program, and the fluorescence signal was read. 10 μL of agonist reference compound was further added at a given concentration to the cell plate and the fluorescence signal was read. After reading, the data was derived by “Max-Min” and “Read 90 to Maximum Allowed” methods in the software and EC80 of the corresponding cell line was calculated, and the reference compound with a concentration of 6× EC80 was prepared. • f) The FLIPR instrument software was run. 10 μL of the compound to be tested and the reference compound at a given concentration were added into the cell plate according to the set program, and the fluorescence signal was read. 10 μL of reference compound agonist was further added at a concentration of 6× EC80 to the cell plate and the fluorescence signal was read. • g) Data Analysis • Calculation formula for data in the project:
Inhibitor % activity=100−(signal value per well−average value for high dose control group of inhibitor)/(average value for DMSO control group−average value for high dose control group of inhibitor)*100%.

[3] = tested on: Amphetamine-induced high locomotor activity in mice; test: Amphetamine-induced high locomotor activity (LMA) in mice; assay type: in vivo; set-up: Distance resulting from the activity, First 30 min / Distance resulting from the activity, Last 30 min: unit not given here; conditions: for Effect on Amphetamine-induced high locomotor activity compared with olanzapine (in words) / Inhibition of Amphetamine-induced high locomotor activity (in words): 5, 10, 20 mg/kg; for Effect on Amphetamine-induced high locomotor activity compared with olanzapine (in words): p.o. vs olanzapine 5.0 mg/kg p.o.; for Inhibition of Amphetamine-induced high locomotor activity (in words): p.o., P<0.05-0.01; for Distance resulting from the activity, First 30 min / Distance resulting from the activity, Last 30 min: Amphetamine 1.0 mg/kg s.c., male ICR mice
Method: The test compound MDC was a milky white powder and stored in a shade and cool place (formulated with 1% DMSO before use). […] Amphetamine, purchased from Sigma-Aldrich, was a white powder (formulated with normal saline before use). 1% DMSO was formulated by diluting pure DMSO (purity>99.5, purchased from Sigma) with normal saline.
Male ICR mice having weight 22±2 g were kept at 8 mice/cage with 12/12 hours light/dark cycle, temperature 23° C.±1° C., humidity 50% to 60%, free to eat and drink water.
The administration volume was 0.1 ml/10 g body weight; Amphetamine was freshly formulated with normal saline at a dose of 1.0 mg/kg and administered subcutaneously.
After one week of acclimation, mice were randomly divided into 6 groups according to their body weight: negative control group, model group, positive control group, and low dose group, medium dose group and high dose group for the test compound. 8-10 animals/group.
Group 1: Negative control group: Normal saline (s.c.)+1% DMSO (10.0 ml/kg, p.o.);
Group 2: Model group: Amphetamine (1.0 mg/kg, s.c.)+1% DMSO (10.0 ml/kg, p.o.);
Group 4: MDC low dose group: Amphetamine (1.0 mg/kg, s.c.)+MDC (5 mg/kg, p.o.);
Group 5: MDC medium dose group: Amphetamine (1.0 mg/kg, s.c.)+MDC (10 mg/kg, p.o.);
Group 6: MDC high dose group: Amphetamine (1.0 mg/kg, s.c.)+MDC (20 mg/kg, p.o.).
After administration, the animals were immediately placed in a locomotor activity box and recorded by Shanghai Jiliang animal video analysis system for 1 hour.
After the experiment, the activity of the animals within 1 hour was analyzed using the trajectory analysis software of Shanghai Jiliang animal video analysis system to obtain the total distance resulting from the activity.

[4] = 5 mg/kg p.o. (low dose group; olanzapine positive control)
[5] = 10 mg/kg p.o. (medium dose group)
[6] = 20 mg/kg p.o. (high dose group)

O=S(=O)(Nc1cccc(C2CCN(Cc3c[nH]c4ccccc34)C2)c1)c1cccs1 (stereo not shown) [MDC-161502-008, 1-(indole-3-methyl)-3-[3-(2-thiophenesulfonamido)phenyl]pyrrolidine]
IC50 [1]: 120 nM
IC50 [2]: 5.4 nM
Effect on Amphetamine-induced high locomotor activity compared with olanzapine (in words) [3]: equivalent to olanzapine
Inhibition of Amphetamine-induced high locomotor activity (in words) [3]: significantly inhibited
Distance resulting from the activity, First 30 min [3, 4]: 287643
Distance resulting from the activity, Last 30 min [3, 4]: 264309
Distance resulting from the activity, First 30 min [3, 5]: 253945
Distance resulting from the activity, Last 30 min [3, 5]: 220678
Distance resulting from the activity, First 30 min [3, 6]: 209673
Distance resulting from the activity, Last 30 min [3, 6]: 219876

Oc1cccc(C2CCN(Cc3c[nH]c4ccccc34)C2)c1 (racemic) [MDC-161502-002, 1-(indole-3-methyl)-3-(3-hydroxyphenyl)pyrrolidine]
IC50 [1]: 14 nM
IC50 [2]: 2 nM
Effect on Amphetamine-induced high locomotor activity compared with olanzapine (in words) [3]: equivalent to olanzapine; also recorded: better than olanzapine
Inhibition of Amphetamine-induced high locomotor activity (in words) [3]: significantly inhibited
Distance resulting from the activity, First 30 min [3, 4]: 284824
Distance resulting from the activity, Last 30 min [3, 4]: 257329
Distance resulting from the activity, First 30 min [3, 5]: 250678
Distance resulting from the activity, Last 30 min [3, 5]: 231296
Distance resulting from the activity, First 30 min [3, 6]: 180127
Distance resulting from the activity, Last 30 min [3, 6]: 148036

O=S(=O)(CC(F)(F)F)Nc1cccc(C2CCN(Cc3c[nH]c4ccccc34)C2)c1 (stereo not shown) [MDC-161502-006, 1-(indole-3-methyl)-3-(3-trifluoroethanesulfonamidophenyl)pyrrolidine]
IC50 [1]: 639 nM
IC50 [2]: 171 nM
Distance resulting from the activity, First 30 min [3, 4]: 340368
Distance resulting from the activity, Last 30 min [3, 4]: 318973
Distance resulting from the activity, First 30 min [3, 5]: 298763
Distance resulting from the activity, Last 30 min [3, 5]: 257632
Distance resulting from the activity, First 30 min [3, 6]: 270378
Distance resulting from the activity, Last 30 min [3, 6]: 231584
